System: MV-4-11 cells
Assay: Gene expression microarray analysis (Affymetrix PrimeView) and GSEA
Format: cell-based, human
Design: RFU PODN (11730768_x_at) / Fold change /veh PODN (11730768_x_at) / RFU LINC00158 (11744669_a_at) / Fold change /veh LINC00158 (11744669_a_at) / RFU DUSP10 (11751237_a_at) / Fold change /veh DUSP10 (11751237_a_at) / RFU ID3 (11757404_x_at) / Fold change /veh ID3 (11757404_x_at) / RFU PLEKHG5 (11737974_s_at) / Fold change /veh PLEKHG5 (11737974_s_at) / RFU LRRC4B (11730491_at) / Fold change /veh LRRC4B (11730491_at) / RFU GIMAP4 (11747438_a_at) / Fold change /veh GIMAP4 (11747438_a_at) / RFU KRT8 (11758183_x_at) / Fold change /veh KRT8 (11758183_x_at) / RFU CNN1 (11734310_a_at) / Fold change /veh CNN1 (11734310_a_at) / RFU VPS37D (11726825_at) / Fold change /veh VPS37D (11726825_at) / RFU C10orf10 (11716522_x_at) / Fold change /veh C10orf10 (11716522_x_at) / RFU KIR2DL2 /// KIR2DL4 /// KIR2DL5A /// KIR2DL5B /// KIR2DS1 /// KIR2DS2 /// KIR2DS3 /// KIR2DS4 /// KIR3DL3 /// KIR3DL3 /// KIR3DS1 (11738374_at) / Fold change /veh KIR2DL2 /// KIR2DL4 /// KIR2DL5A /// KIR2DL5B /// KIR2DS1 /// KIR2DS2 /// KIR2DS3 /// KIR2DS4 /// KIR3DL3 /// KIR3DL3 /// KIR3DS1 (11738374_at) / RFU C1QL1 (11718748_at) / Fold change /veh C1QL1 (11718748_at) / RFU TMPRSS4 (11747572_a_at) / Fold change /veh TMPRSS4 (11747572_a_at) / RFU HAMP (11756126_x_at) / Fold change /veh HAMP (11756126_x_at) / RFU RNFT2 (11725882_a_at) / Fold change /veh RNFT2 (11725882_a_at) / RFU NR4A2 (11747474_a_at) / Fold change /veh NR4A2 (11747474_a_at) / RFU ABCC12 (11746883_a_at) / Fold change /veh ABCC12 (11746883_a_at) / RFU TMEM136 (11760407_x_at) / Fold change /veh TMEM136 (11760407_x_at) / RFU CLDN22 /// WWC2 (11732394_at) / Fold change /veh CLDN22 /// WWC2 (11732394_at) / RFU HLA-DPB1 (11760878_x_at) / Fold change /veh HLA-DPB1 (11760878_x_at) / RFU SPINT1 (11716480_a_at) / Fold change /veh SPINT1 (11716480_a_at) / RFU GAP43 (11754022_s_at) / Fold change /veh GAP43 (11754022_s_at) / RFU A4GNT (11735810_at) / Fold change /veh A4GNT (11735810_at) / RFU PRB3 (11715151_x_at) / Fold change /veh PRB3 (11715151_x_at) / RFU TUBB4B (11761932_at) / Fold change /veh TUBB4B (11761932_at) / RFU CAPN14 (11732068_a_at) / Fold change /veh CAPN14 (11732068_a_at) / RFU TMCC2 (11721928_a_at) / Fold change /veh TMCC2 (11721928_a_at) / RFU IRGQ (11745062_a_at) / Fold change /veh IRGQ (11745062_a_at) / RFU FAM174B (11720279_a_at) / Fold change /veh FAM174B (11720279_a_at) / RFU TMPRSS4 (11748680_a_at) / Fold change /veh TMPRSS4 (11748680_a_at) / RFU FAM212B (11763350_a_at) / Fold change /veh FAM212B (11763350_a_at) / RFU PLEKHG5 (11743358_a_at) / Fold change /veh PLEKHG5 (11743358_a_at) / RFU ZSCAN30 (11745921_a_at) / Fold change /veh ZSCAN30 (11745921_a_at) / RFU CMKLR1 (11741424_a_at) / Fold change /veh CMKLR1 (11741424_a_at) / RFU LOC101060620 /// MAPK8IP1 (11723275_at) / Fold change /veh LOC101060620 /// MAPK8IP1 (11723275_at) / RFU SPTSSB (11747773_x_at) / Fold change /veh SPTSSB (11747773_x_at) / RFU PRSS12 (11739890_at) / Fold change /veh PRSS12 (11739890_at) / RFU BIN1 (11741810_x_at) / Fold change /veh BIN1 (11741810_x_at) / RFU WNT11 (11732464_a_at) / Fold change /veh WNT11 (11732464_a_at) / RFU C10orf10 (11716521_a_at) / Fold change /veh C10orf10 (11716521_a_at) / RFU C5orf56 (11738089_at) / Fold change /veh C5orf56 (11738089_at) / RFU CYB561 (11721691_x_at) / Fold change /veh CYB561 (11721691_x_at) / RFU ANKRD19P (11752326_a_at) / Fold change /veh ANKRD19P (11752326_a_at) / RFU OR2T12 /// OR2T33 /// OR2T8 (11738714_s_at) / Fold change /veh OR2T12 /// OR2T33 /// OR2T8 (11738714_s_at) / RFU VCAN (11748164_a_at) / Fold change /veh VCAN (11748164_a_at) / RFU JSRP1 (11732532_at) / Fold change /veh JSRP1 (11732532_at) / RFU KRTAP10-11 (11738290_x_at) / Fold change /veh KRTAP10-11 (11738290_x_at) / RFU MYO3A (11730013_a_at) / Fold change /veh MYO3A (11730013_a_at) / RFU EBF3 (11725865_a_at) / Fold change /veh EBF3 (11725865_a_at) / RFU CAMK2N1 (11719241_x_at) / Fold change /veh CAMK2N1 (11719241_x_at) / RFU C5orf56 (11738088_a_at) / Fold change /veh C5orf56 (11738088_a_at) / RFU OLFML3 (11715873_a_at) / Fold change /veh OLFML3 (11715873_a_at) / RFU LOC100653217 /// NTM (11731650_a_at) / Fold change /veh LOC100653217 /// NTM (11731650_a_at) / RFU MAPK11 (11762145_a_at) / Fold change /veh MAPK11 (11762145_a_at) / RFU FIZ1 (11724087_x_at) / Fold change /veh FIZ1 (11724087_x_at) / RFU OASL (11726364_x_at) / Fold change /veh OASL (11726364_x_at) / RFU SOX15 (11748057_x_at) / Fold change /veh SOX15 (11748057_x_at) / RFU CD79A (11719716_a_at) / Fold change /veh CD79A (11719716_a_at) / RFU HIST1H1D (11736915_at) / Fold change /veh HIST1H1D (11736915_at) / RFU CASKIN2 (11723855_a_at) / Fold change /veh CASKIN2 (11723855_a_at) / RFU LOC730098 (11760151_x_at) / Fold change /veh LOC730098 (11760151_x_at) / RFU OR4N2 (11742367_at) / Fold change /veh OR4N2 (11742367_at) / RFU PRRT2 (11749266_a_at) / Fold change /veh PRRT2 (11749266_a_at) / RFU SNX32 (11753110_a_at) / Fold change /veh SNX32 (11753110_a_at) / RFU CDHR5 (11726645_a_at) / Fold change /veh CDHR5 (11726645_a_at) / RFU RCAN1 (11760418_a_at) / Fold change /veh RCAN1 (11760418_a_at) / RFU FAM167A (11723789_a_at) / Fold change /veh FAM167A (11723789_a_at) / RFU FAM26E (11764081_at) / Fold change /veh FAM26E (11764081_at) / RFU ISYNA1 (11749810_s_at) / Fold change /veh ISYNA1 (11749810_s_at) / RFU ACY1 (11761880_at) / Fold change /veh ACY1 (11761880_at) / RFU 11764098_at / Fold change /veh 11764098_at / RFU SAMD14 (11745864_x_at) / Fold change /veh SAMD14 (11745864_x_at) / RFU NPB (11741838_a_at) / Fold change /veh NPB (11741838_a_at) / RFU TMPRSS6 (11731388_a_at) / Fold change /veh TMPRSS6 (11731388_a_at) / RFU KRTAP10-2 (11738614_at) / Fold change /veh KRTAP10-2 (11738614_at) / RFU ARHGAP8 /// PRR5-ARHGAP8 (11727945_x_at) / Fold change /veh ARHGAP8 /// PRR5-ARHGAP8 (11727945_x_at) / RFU KRTAP5-7 /// NADSYN1 (11734609_at) / Fold change /veh KRTAP5-7 /// NADSYN1 (11734609_at) / RFU RASL12 (11751679_a_at) / Fold change /veh RASL12 (11751679_a_at) / RFU CDKN2B (11736163_a_at) / Fold change /veh CDKN2B (11736163_a_at) / RFU PRF1 (11729649_at) / Fold change /veh PRF1 (11729649_at) / RFU, ZNF638 /// ZNF638-IT1 / Fold change vs veh, ZNF638 /// ZNF638-IT1 / RFU, PANK3 / Fold change vs veh, PANK3 / RFU, SH3YL1 / Fold change vs veh, SH3YL1 / RFU, ZEB2 / Fold change vs veh, ZEB2 / RFU, NRIP1 / Fold change vs veh, NRIP1 / RFU, PTTG1IP / Fold change vs veh, PTTG1IP / RFU, CAPN2 / Fold change vs veh, CAPN2 / RFU, MED14 / Fold change vs veh, MED14 / RFU, SNORA58 / Fold change vs veh, SNORA58 / RFU, C1orf63 / Fold change vs veh, C1orf63 / RFU, LRRFIP1 / Fold change vs veh, LRRFIP1 / RFU, NDUFAF7 / Fold change vs veh, NDUFAF7 / RFU, SLC12A2 / Fold change vs veh, SLC12A2 / RFU, IBTK / Fold change vs veh, IBTK / RFU, ESF1 / Fold change vs veh, ESF1 / Fold change vs veh, TMEM50B / RFU, TAOK1 / Fold change vs veh, TAOK1 / RFU, ACBD3 / Fold change vs veh, ACBD3 / RFU, TMA16 / Fold change vs veh, TMA16 / RFU, RWDD3 / Fold change vs veh, RWDD3 / RFU, BCAT1 / Fold change vs veh, BCAT1 / RFU, EDEM3 / Fold change vs veh, EDEM3 / RFU, TMEM33 / Fold change vs veh, TMEM33 / RFU, WDR75 / Fold change vs veh, WDR75 / RFU, AHCTF1 / Fold change vs veh, AHCTF1 / RFU, TFRC / Fold change vs veh, TFRC / RFU, ZDHHC17 / Fold change vs veh, ZDHHC17 / RFU, NOM1 / Fold change vs veh, NOM1 / RFU, ARL8B / Fold change vs veh, ARL8B / RFU, ZBTB11 / Fold change vs veh, ZBTB11 / RFU, TAMM41 / Fold change vs veh, TAMM41 / RFU, KIAA1704 /// LOC100996395 / Fold change vs veh, KIAA1704 /// LOC100996395 / RFU, ING1 / Fold change vs veh, ING1 / RFU, TRMT61B / Fold change vs veh, TRMT61B / RFU, FUBP3 / Fold change vs veh, FUBP3 / RFU, TP53 / Fold change vs veh, TP53 / RFU, TNKS2 / Fold change vs veh, TNKS2 / RFU, ZFP14 / Fold change vs veh, ZFP14 / RFU, ACTR2 / Fold change vs veh, ACTR2 / RFU, PPP3R1 / Fold change vs veh, PPP3R1 / RFU, PIK3R1 / Fold change vs veh, PIK3R1 / RFU, HNRNPA1 / Fold change vs veh, HNRNPA1 / RFU, RNF170 / Fold change vs veh, RNF170 / RFU, ZNF28 / Fold change vs veh, ZNF28 / RFU, RNGTT / Fold change vs veh, RNGTT / RFU, OGT / Fold change vs veh, OGT / RFU, BRD1 / Fold change vs veh, BRD1 / RFU, MARS / Fold change vs veh, MARS / RFU, ZNF655 / Fold change vs veh, ZNF655 / RFU, FAHD1 / Fold change vs veh, FAHD1 / RFU, BDP1 / Fold change vs veh, BDP1 / RFU, LRRCC1 / Fold change vs veh, LRRCC1 / RFU, ARID1A / Fold change vs veh, ARID1A / RFU, ZNF146 / Fold change vs veh, ZNF146 / RFU, ZNF330 / Fold change vs veh, ZNF330 / RFU, GPN3 / Fold change vs veh, GPN3 / RFU, C9orf123 / Fold change vs veh, C9orf123 / RFU, N4BP2L2 / Fold change vs veh, N4BP2L2 / RFU, ARFIP1 / Fold change vs veh, ARFIP1 / RFU, FAM179B / Fold change vs veh, FAM179B / RFU, BCL10 / Fold change vs veh, BCL10 / RFU, UHRF1BP1L / Fold change vs veh, UHRF1BP1L / RFU, BET1 / Fold change vs veh, BET1 / RFU, CNOT2 / Fold change vs veh, CNOT2 / RFU, ZNF268 / Fold change vs veh, ZNF268 / Fold change vs veh, ZNF507 / RFU, DGCR2 / Fold change vs veh, DGCR2 / RFU, WDSUB1 / Fold change vs veh, WDSUB1 / Fold change vs veh, HSP90B1 /// MIR3652 / RFU, ADSS / Fold change vs veh, ADSS / RFU, GK / Fold change vs veh, GK / RFU, ZNF148 / Fold change vs veh, ZNF148 / RFU, TAF9 / Fold change vs veh, TAF9 / RFU, SLC1A5 / Fold change vs veh, SLC1A5 / RFU, SLMO2 / Fold change vs veh, SLMO2 / RFU, ABCC4 / Fold change vs veh, ABCC4 / RFU, LOC101060439 /// RAP1B / Fold change vs veh, LOC101060439 /// RAP1B / RFU, RFX7 / Fold change vs veh, RFX7 / RFU, GTPBP10 / Fold change vs veh, GTPBP10 / RFU, CNEP1R1 / Fold change vs veh, CNEP1R1 / RFU, BIVM-ERCC5 /// ERCC5 / Fold change vs veh, BIVM-ERCC5 /// ERCC5 / RFU, ILF3 / Fold change vs veh, ILF3 / RFU 11762660_at / Fold change /veh 11762660_at / RFU VCAN (11757783_s_at) / Fold change /veh VCAN (11757783_s_at) / RFU DDX43 (11728927_at) / Fold change /veh DDX43 (11728927_at) / RFU KRT8 (11758188_x_at) / Fold change /veh KRT8 (11758188_x_at) / RFU NKD1 (11759106_at) / Fold change /veh NKD1 (11759106_at) / RFU SRD5A1 (11742802_a_at) / Fold change /veh SRD5A1 (11742802_a_at) / RFU TPSAB1 /// TPSB2 (11721975_s_at) / Fold change /veh TPSAB1 /// TPSB2 (11721975_s_at) / RFU GSTM3 (11746129_a_at) / Fold change /veh GSTM3 (11746129_a_at) / RFU IL23R (11737362_x_at) / Fold change /veh IL23R (11737362_x_at) / RFU TMEM51 (11727254_a_at) / Fold change /veh TMEM51 (11727254_a_at) / RFU PIWIL2 (11732686_x_at) / Fold change /veh PIWIL2 (11732686_x_at) / RFU ORM1 (11744905_x_at) / Fold change /veh ORM1 (11744905_x_at) / RFU CCDC152 (11743942_at) / Fold change /veh CCDC152 (11743942_at) / RFU ECM1 (11717891_a_at) / Fold change /veh ECM1 (11717891_a_at) / RFU IL23R (11748794_a_at) / Fold change /veh IL23R (11748794_a_at) / RFU TNFAIP8L3 (11732012_x_at) / Fold change /veh TNFAIP8L3 (11732012_x_at) / RFU MBOAT4 (11741988_at) / Fold change /veh MBOAT4 (11741988_at) / RFU 11764193_at / Fold change /veh 11764193_at / RFU TMEM53 (11763286_at) / Fold change /veh TMEM53 (11763286_at) / RFU MAGEB2 (11727129_at) / Fold change /veh MAGEB2 (11727129_at) / RFU TMEM200A (11744735_a_at) / Fold change /veh TMEM200A (11744735_a_at) / RFU CCDC152 (11751479_a_at) / Fold change /veh CCDC152 (11751479_a_at) / RFU FAM211A (11726209_a_at) / Fold change /veh FAM211A (11726209_a_at) / RFU RGS16 (11746705_a_at) / Fold change /veh RGS16 (11746705_a_at) / RFU VCAN (11755009_s_at) / Fold change /veh VCAN (11755009_s_at) / RFU RHOB (11743442_s_at) / Fold change /veh RHOB (11743442_s_at) / RFU RGS16 (11720943_a_at) / Fold change /veh RGS16 (11720943_a_at) / RFU RGS16 (11720944_at) / Fold change /veh RGS16 (11720944_at) / RFU, VPS4B / Fold change vs veh, VPS4B / RFU, CREB1 / Fold change vs veh, CREB1 / RFU, DNAJC13 / Fold change vs veh, DNAJC13 / RFU, GNAQ / Fold change vs veh, GNAQ / RFU, CDK5R1 / Fold change vs veh, CDK5R1 / RFU, ZRANB3 / Fold change vs veh, ZRANB3 / RFU, CUL4A / Fold change vs veh, CUL4A / RFU, CCNY / Fold change vs veh, CCNY / RFU, UFL1 / Fold change vs veh, UFL1 / RFU, COG3 / Fold change vs veh, COG3 / RFU, DIAPH2 / Fold change vs veh, DIAPH2 / RFU, SKA2 / Fold change vs veh, SKA2 / RFU, AFF3 / Fold change vs veh, AFF3 / RFU, LMF1 / Fold change vs veh, LMF1 / RFU, IPO11 / Fold change vs veh, IPO11 / RFU, DFFB / Fold change vs veh, DFFB / RFU, FOXP1 / Fold change vs veh, FOXP1 / RFU, CARD8 / Fold change vs veh, CARD8 / RFU, STRN3 / Fold change vs veh, STRN3 / RFU, ADK / Fold change vs veh, ADK / RFU, RASSF2 / Fold change vs veh, RASSF2 / RFU, WIPF1 / Fold change vs veh, WIPF1 / RFU, LARP1B / Fold change vs veh, LARP1B / RFU, RASA1 / Fold change vs veh, RASA1 / RFU, RB1 / Fold change vs veh, RB1 / RFU, PPFIA1 / Fold change vs veh, PPFIA1 / RFU, MAT2A / Fold change vs veh, MAT2A / RFU, CCT5 / Fold change vs veh, CCT5 / RFU, WDR92 / Fold change vs veh, WDR92 / RFU, CUX1 / Fold change vs veh, CUX1 / RFU, TTC7A / Fold change vs veh, TTC7A / RFU, TMEM135 / Fold change vs veh, TMEM135 / RFU, DEPTOR / Fold change vs veh, DEPTOR / RFU, CPM / Fold change vs veh, CPM / RFU, DNAJB6 / Fold change vs veh, DNAJB6 / RFU, CACNA2D3 / Fold change vs veh, CACNA2D3 / RFU, DTX4 / Fold change vs veh, DTX4 / RFU, TFCP2 / Fold change vs veh, TFCP2 / RFU, GMCL1 /// GMCL1P1 / Fold change vs veh, GMCL1 /// GMCL1P1 / RFU, AEBP2 / Fold change vs veh, AEBP2 / RFU, SNHG1 /// SNORD22 /// SNORD25 /// SNORD26 /// SNORD27 /// SNORD28 /// SNORD29 /// SNORD31 / Fold change vs veh, SNHG1 /// SNORD22 /// SNORD25 /// SNORD26 /// SNORD27 /// SNORD28 /// SNORD29 /// SNORD31 / Fold change (Aza/veh), C12orf56 (ProbeSet 11735607_a_at) / Fold change (ACY-1035/veh), C12orf56 (ProbeSet 11735607_a_at) / Fold change (Aza/veh), FGFR1OP (ProbeSet 11751329_s_at) / Fold change (ACY-1035/veh), FGFR1OP (ProbeSet 11751329_s_at) / Fold change (Aza/veh), VPS36 (ProbeSet 11739960_a_at) / Fold change (ACY-1035/veh), VPS36 (ProbeSet 11739960_a_at) / RFU SYPL1 (11715823_x_at) / Fold change /veh SYPL1 (11715823_x_at) / RFU IGFBP7 (11715501_s_at) / Fold change /veh IGFBP7 (11715501_s_at) / RFU REEP3 (11722064_at) / Fold change /veh REEP3 (11722064_at) / RFU IGLL1 (11728026_x_at) / Fold change /veh IGLL1 (11728026_x_at): dose or concentration left out as unconfirmed
Settings: MV-4-11 cells, 48 hours

Compound: Nc1ccc(-c2cccs2)cc1NC(=O)c1ccc2c(c1)cc(C1CC1)n2CCN1CCOCC1 [ACY-1035]
- RFU CYB561 (11721691_x_at): 11.94 RFU

— paper PMC5218480 (PLoS ONE, 2017)
